# Source: ChEMBL document CHEMBL1201862, “PubChem BioAssay data set” (2004)
# Calls of active or inactive are those of the source.
# Experiments:
# Protein skinhead-1 = target: T1, Protein skinhead-1 (Caenorhabditis elegans, UniProt P34707); type: functional
# T1 sequence (P34707 whole entry): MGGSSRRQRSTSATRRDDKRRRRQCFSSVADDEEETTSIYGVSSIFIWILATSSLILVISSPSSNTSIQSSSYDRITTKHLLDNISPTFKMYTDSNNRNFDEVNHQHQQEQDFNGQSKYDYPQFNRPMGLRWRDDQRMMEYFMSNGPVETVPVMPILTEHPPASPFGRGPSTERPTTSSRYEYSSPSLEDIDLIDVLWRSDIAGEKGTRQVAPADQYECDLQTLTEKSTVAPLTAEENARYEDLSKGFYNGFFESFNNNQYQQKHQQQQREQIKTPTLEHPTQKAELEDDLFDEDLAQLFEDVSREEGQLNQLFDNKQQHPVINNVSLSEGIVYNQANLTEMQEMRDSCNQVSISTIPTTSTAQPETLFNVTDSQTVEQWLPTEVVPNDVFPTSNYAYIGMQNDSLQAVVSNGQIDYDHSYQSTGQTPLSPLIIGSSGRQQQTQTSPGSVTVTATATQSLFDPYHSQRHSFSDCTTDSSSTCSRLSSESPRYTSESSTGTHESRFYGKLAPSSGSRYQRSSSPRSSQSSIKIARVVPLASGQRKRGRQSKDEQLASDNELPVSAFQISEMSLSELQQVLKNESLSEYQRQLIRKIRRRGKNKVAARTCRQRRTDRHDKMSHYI
# cells = type: functional
# [1] = target: T2, Polyadenylate-binding protein 1 (Homo sapiens, UniProt P11940); assay: PABP1 MLLE–PAM2 binding inhibitor potency, dose response, biochemical, fluorescence polarization, FITC-PAM2 peptide (AID 602259); type: functional; settings: read-out: IC50_Mean
# T2 sequence (P11940 whole entry): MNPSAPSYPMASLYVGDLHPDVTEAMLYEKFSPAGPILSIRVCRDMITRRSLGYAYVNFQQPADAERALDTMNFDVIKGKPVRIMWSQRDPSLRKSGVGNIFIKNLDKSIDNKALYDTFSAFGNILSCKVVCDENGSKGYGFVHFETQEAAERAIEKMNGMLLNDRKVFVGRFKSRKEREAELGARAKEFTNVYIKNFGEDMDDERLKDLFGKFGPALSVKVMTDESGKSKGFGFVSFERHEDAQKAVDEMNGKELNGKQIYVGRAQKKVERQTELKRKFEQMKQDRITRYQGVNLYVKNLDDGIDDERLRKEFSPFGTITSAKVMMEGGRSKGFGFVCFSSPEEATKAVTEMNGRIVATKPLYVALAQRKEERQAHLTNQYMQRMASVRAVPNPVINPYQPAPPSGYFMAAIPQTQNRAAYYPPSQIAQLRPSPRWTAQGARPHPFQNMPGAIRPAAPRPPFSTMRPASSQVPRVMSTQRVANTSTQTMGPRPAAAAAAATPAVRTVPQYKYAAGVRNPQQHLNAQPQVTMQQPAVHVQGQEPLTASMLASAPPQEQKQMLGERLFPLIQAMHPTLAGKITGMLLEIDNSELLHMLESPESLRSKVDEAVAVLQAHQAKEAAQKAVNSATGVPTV
# [2] = target: T2, Polyadenylate-binding protein 1; assay: PABP1 MLLE–PAM2 interaction inhibitors, dose response, miRNA deadenylation inhibitor project, biochemical, fluorescence polarization, Cy5-PAM2 peptide, secondary (AID 602260); type: functional; settings: read-out: IC50_Mean
# H9c2 = assay: cells; type: functional, cell-based; settings: Rattus norvegicus, H9c2, Myocardium;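 also: confirmatory concentration-response retest of ultra-high-throughput screening hits for modulation of myocardial damage; cell death induced by hydrogen peroxide oxidative stress; compound pretreatment for 60 min then peroxide exposure for 2 h; potency is for protecting the cells against peroxide damage rather than for killing them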
# Leucine aminopeptidase = target: T3, Leucine aminopeptidase (Plasmodium falciparum 3D7, UniProt Q8IL11); assay: P. falciparum M17LAP inhibitors, primary screen, biochemical, fluorogenic H-Leu-NHMec substrate, 1536-well (AID 1619); type: functional
# T3 sequence (Q8IL11 whole entry): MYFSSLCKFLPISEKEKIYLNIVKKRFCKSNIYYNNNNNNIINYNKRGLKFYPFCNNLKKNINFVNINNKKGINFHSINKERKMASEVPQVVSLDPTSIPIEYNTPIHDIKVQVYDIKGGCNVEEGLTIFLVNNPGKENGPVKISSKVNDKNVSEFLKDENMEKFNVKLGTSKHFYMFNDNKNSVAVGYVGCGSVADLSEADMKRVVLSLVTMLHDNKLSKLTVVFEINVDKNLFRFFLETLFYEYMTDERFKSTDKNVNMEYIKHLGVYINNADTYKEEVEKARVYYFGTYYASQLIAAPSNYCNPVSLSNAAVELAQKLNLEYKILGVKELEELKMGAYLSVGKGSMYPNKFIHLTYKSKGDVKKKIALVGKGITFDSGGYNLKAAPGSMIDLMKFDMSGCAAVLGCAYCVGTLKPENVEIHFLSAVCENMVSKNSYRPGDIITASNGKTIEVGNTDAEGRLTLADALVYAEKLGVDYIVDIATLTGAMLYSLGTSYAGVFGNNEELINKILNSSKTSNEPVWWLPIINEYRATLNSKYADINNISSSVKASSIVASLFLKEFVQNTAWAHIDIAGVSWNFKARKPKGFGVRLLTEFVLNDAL
# [3] = target: Luciferin 4-monooxygenase (Photinus pyralis, UniProt P08659); assay: firefly luciferase enzyme inhibitors, dose response, biochemical, luminescence (AID 1891)
# Chain of Luciferin 4-monooxygenase (P08659 whole entry): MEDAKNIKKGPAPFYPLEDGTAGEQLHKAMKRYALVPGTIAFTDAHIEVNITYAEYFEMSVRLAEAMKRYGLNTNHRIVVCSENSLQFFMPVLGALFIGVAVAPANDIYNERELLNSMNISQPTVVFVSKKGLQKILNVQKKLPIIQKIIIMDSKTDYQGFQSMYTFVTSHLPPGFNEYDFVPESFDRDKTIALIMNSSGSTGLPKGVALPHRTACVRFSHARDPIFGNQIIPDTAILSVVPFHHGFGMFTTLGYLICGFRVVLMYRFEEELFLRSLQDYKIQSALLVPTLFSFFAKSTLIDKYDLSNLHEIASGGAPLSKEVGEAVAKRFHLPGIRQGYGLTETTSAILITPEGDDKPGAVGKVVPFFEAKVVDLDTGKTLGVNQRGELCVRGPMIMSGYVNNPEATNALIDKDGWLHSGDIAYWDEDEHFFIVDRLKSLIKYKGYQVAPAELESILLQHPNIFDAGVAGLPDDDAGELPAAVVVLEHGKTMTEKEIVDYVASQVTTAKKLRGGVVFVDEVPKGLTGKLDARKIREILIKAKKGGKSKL
# [4] = Luminescence Cell-Based Dose Confirmation HTS to Identify Inhibitors of Platelet Dense Granule Release. [Related pubchem assays: 1663 (Primary HTS), 1678 (Summary of Project)]; type: functional
# H4 = assay: Luminescence Cell-Based Dose Response HTS to Identify Activators of 5'UTR Stem-Loop Driven Prion Protein mRNA Translation in H4 Neuroglioblastoma Cells. [Related pubchem assays: 1829 (Project Summary), 1814 (Primary HTS)]; type: functional; settings: Homo sapiens
# [5] = Luminescence Cell-Based Dose Response HTS to Identify Activators of Luciferase Translation or Activity in H4 […] Cells. [Related pubchem assays: 1829 (Project Summary), 1814 (Primary HTS)]; type: functional
# Estrogen receptor = target: T4, Estrogen receptor (Homo sapiens, UniProt P03372);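 also: potency for inhibiting coactivator peptide recruitment to the receptor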
# T4 sequence (P03372 whole entry): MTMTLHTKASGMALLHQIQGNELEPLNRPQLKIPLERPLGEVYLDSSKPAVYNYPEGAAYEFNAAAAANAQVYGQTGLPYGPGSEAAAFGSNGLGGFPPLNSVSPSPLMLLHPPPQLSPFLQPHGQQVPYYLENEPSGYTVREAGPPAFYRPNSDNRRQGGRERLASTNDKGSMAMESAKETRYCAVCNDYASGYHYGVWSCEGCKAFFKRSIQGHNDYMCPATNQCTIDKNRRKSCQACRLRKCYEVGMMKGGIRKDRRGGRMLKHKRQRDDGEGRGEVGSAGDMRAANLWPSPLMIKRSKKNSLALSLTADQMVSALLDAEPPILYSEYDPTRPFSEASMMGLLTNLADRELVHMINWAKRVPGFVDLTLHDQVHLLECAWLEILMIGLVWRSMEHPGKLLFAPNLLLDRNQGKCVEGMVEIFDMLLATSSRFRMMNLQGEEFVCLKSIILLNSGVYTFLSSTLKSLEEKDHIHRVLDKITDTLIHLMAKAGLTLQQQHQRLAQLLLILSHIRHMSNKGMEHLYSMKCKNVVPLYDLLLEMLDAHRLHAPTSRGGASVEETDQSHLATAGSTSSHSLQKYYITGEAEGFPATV
# [6] = Luminescence Cell-Based Dose Confirmation HTS to Identify Activators of 5'UTR Stem-Loop Driven Alpha-Synuclein mRNA Translation in H4 Neuroglioblastoma Cells. [Related pubchem assays: 1829 (Project Summary), 1814 (Primary HTS)]; type: functional
# Cytochrome P450 2D6 = Cytochrome P450 2D6 (Homo sapiens, UniProt P10635);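 also: CYP2D6 member of a cytochrome P450 panel assay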
# Chain of Cytochrome P450 2D6 (P10635 whole entry): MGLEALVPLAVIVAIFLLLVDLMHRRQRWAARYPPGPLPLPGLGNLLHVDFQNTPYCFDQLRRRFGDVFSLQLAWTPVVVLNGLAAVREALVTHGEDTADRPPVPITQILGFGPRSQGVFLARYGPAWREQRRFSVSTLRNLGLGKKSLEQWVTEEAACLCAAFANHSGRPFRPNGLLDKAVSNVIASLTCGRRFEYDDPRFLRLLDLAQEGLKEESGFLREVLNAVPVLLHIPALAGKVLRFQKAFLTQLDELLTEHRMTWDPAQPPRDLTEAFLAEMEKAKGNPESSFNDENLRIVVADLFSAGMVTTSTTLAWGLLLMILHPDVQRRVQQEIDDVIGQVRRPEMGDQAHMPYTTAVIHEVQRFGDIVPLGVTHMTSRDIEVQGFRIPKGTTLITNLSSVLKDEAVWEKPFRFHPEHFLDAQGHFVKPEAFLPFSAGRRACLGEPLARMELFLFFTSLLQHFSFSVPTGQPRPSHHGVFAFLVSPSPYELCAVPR
# Vero = assay: cells; type: functional; settings: Chlorocebus sabaeus
# Fatty acid synthase [7] = target: T5, Fatty acid synthase (Homo sapiens, UniProt P49327); assay: FAS thioesterase domain inhibitors, dose response, biochemical, kinetic fluorescence intensity (AID 624326); type: functional;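 also: rate of fluorescence rise from hydrolysis of a fluorogenic O-methyl fluorescein ester substrate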
# T5 sequence (P49327 whole entry, the tested form may be a part): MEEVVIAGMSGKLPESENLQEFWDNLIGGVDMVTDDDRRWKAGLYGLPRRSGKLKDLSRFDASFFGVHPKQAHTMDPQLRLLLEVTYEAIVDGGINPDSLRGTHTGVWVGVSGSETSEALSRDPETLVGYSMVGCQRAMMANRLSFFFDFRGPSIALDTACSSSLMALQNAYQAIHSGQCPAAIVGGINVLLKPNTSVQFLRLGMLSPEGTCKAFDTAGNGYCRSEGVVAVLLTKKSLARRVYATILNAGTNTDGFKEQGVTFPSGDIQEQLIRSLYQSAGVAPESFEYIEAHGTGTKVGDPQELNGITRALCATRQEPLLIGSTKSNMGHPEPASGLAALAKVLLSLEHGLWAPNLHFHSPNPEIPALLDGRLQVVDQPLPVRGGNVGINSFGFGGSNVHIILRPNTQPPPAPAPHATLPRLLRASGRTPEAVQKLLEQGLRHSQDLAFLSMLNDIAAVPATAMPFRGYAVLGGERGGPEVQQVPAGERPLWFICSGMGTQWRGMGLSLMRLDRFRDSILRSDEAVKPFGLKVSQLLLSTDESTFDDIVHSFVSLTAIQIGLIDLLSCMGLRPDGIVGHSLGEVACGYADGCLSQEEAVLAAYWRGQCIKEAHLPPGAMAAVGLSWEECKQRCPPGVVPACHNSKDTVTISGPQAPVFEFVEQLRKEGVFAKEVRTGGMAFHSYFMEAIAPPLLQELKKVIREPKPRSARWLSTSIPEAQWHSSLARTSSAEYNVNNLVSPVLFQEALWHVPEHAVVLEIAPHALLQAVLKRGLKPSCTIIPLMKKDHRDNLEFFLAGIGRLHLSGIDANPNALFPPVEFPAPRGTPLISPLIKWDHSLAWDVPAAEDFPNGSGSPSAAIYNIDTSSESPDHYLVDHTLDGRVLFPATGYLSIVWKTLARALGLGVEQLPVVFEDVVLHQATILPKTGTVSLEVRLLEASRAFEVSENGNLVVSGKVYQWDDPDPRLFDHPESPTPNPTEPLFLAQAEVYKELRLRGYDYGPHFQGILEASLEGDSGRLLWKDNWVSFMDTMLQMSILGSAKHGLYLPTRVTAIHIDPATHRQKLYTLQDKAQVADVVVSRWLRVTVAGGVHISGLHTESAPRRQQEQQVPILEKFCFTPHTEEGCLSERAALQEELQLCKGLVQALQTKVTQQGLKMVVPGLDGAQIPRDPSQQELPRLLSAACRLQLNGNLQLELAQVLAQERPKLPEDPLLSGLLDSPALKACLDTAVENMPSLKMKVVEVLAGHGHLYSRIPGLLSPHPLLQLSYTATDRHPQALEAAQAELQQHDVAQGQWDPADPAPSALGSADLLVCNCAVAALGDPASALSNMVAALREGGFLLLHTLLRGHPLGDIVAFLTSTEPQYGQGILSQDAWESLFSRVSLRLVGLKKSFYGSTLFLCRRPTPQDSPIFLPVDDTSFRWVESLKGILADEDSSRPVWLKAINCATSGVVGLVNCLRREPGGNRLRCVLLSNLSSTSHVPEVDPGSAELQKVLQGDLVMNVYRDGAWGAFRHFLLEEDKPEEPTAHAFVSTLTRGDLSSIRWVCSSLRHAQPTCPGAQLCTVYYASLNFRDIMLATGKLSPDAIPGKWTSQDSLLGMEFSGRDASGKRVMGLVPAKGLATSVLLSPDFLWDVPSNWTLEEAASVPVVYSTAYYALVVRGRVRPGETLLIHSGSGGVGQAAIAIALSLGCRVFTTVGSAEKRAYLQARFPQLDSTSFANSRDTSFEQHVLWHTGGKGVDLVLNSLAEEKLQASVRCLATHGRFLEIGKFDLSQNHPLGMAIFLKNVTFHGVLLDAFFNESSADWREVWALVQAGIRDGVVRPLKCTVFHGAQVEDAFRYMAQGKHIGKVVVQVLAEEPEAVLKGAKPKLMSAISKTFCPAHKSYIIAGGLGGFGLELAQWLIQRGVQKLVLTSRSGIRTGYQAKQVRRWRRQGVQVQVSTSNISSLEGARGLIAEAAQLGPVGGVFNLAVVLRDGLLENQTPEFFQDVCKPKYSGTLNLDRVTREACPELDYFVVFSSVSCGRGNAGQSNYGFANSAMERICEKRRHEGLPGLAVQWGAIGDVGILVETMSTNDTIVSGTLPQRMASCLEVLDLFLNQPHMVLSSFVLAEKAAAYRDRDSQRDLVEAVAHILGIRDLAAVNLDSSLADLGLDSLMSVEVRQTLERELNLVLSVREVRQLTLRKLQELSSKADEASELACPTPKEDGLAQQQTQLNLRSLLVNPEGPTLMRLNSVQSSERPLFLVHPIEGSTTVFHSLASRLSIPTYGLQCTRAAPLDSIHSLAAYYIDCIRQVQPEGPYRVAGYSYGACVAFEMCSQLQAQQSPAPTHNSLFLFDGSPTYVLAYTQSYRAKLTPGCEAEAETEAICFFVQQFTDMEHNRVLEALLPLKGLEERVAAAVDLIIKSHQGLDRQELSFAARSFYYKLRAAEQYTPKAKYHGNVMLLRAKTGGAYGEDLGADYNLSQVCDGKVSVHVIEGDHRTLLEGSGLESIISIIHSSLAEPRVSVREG
# Fatty acid synthase [8] = target: T5, Fatty acid synthase; assay: FAS thioesterase domain inhibitors, dose response, biochemical, endpoint fluorescence intensity, uHTS hits (AID 624327); type: functional;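 also: fluorescence from hydrolysis of an O-methyl fluorescein acyl ester substrate by the enzyme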
# [9] = intracellular Trypanosoma cruzi inhibitors in host cells – cell-based, plate reader, cherry-pick samples, set 3, dose response (AID 651818); type: functional;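 also: compounds incubated with infected cells for about four days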
# Paired box protein Pax-8 = Paired box protein Pax-8 (Homo sapiens, UniProt Q06710); assay: inhibitors of PAX8-driven TPO luciferase reporter, dose response, RMG-I cells, cherry-pick (AID 687027); type: functional, cell-based;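 also: luciferase reporter driven by Pax8 target thyroperoxidase promoter measured by SteadyGlo luminescence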
# Chain of Paired box protein Pax-8 (Q06710 whole entry): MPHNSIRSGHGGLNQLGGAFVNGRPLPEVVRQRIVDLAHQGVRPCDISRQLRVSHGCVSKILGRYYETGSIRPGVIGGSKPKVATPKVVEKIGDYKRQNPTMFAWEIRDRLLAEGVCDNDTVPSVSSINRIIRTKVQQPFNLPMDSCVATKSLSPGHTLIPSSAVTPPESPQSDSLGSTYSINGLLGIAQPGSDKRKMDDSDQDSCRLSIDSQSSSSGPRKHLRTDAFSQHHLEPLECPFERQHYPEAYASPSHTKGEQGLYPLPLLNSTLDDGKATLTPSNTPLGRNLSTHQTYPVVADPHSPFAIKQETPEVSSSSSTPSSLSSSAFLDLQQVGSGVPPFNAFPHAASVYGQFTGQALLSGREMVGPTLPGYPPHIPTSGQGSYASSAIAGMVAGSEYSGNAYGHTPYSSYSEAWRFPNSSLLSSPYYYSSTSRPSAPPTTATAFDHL
# [10] = P. falciparum Dd2 growth inhibitors, dose response, SYBR Green, cherry-picked samples (AID 1159567); type: functional, cell-based
smiles,measurement,setting,value
O=C(Nc1nccs1)c1ccc2ccccc2n1,IC50,Protein skinhead-1,21.3 µM (active)
COc1ccc(C(=O)COC(=O)c2ccc(Cl)nc2)c(OC)c1,IC50,cells,13.2 µM (active)
CCOC(=O)c1sc(NC(=S)NC(=O)c2ccco2)nc1C,IC50,[1],> 66 µM (inactive)
same,IC50,[2],> 66 µM (inactive)
O=C1c2ccccc2C(=O)N1CCCCSc1nc2ccccc2c(=O)n1CCCN1CCOCC1,IC50,H9c2,10.1 µM (active)
Cc1ccc(NC(S)=Nc2ccc(F)cc2)cc1,IC50,[1],> 66 µM (inactive)
same,IC50,[2],> 66 µM (inactive)
CCOC(=O)c1cccc(NC(=O)CN2C(=O)C3C4C=CC(C4)C3C2=O)c1 (configuration not stated),IC50,Leucine aminopeptidase,14.2 µM (active)
Cc1cc(N2CCCCC2)ccc1C=C1C(=O)N(C)C(=S)N(C)C1=O,IC50,Leucine aminopeptidase,40.9 µM (active)
O=C(Nc1ccccc1C(=O)Nc1ccccc1C(=O)NCc1ccco1)c1ccco1,IC50,H9c2,> 79 µM (inactive)
Cc1cccnc1NC(=S)NC(=O)c1oc2ccccc2c1C,IC50,[1],> 66 µM (inactive)
same,IC50,[2],> 66 µM (inactive)
O=C1C(C2=NC(C(=O)O)C3C(=O)N(c4ccccc4)C(=O)C23)=C(O)c2ccccc21 (configuration not stated),IC50,Leucine aminopeptidase,68 µM (active)
CCOC(=O)c1c(C)oc2ccc(NS(=O)(=O)c3ccc(C(=O)O)cc3)cc12,IC50,Leucine aminopeptidase,43.9 µM (active)
O=C(Nc1ccc2snnc2c1)N1CCSCC1,IC50,Protein skinhead-1,> 100 µM (inactive)
O=C(Nc1cccc(C(=O)O)c1)/C(=C\c1ccc2c(c1)OCO2)NC(=O)c1ccc(Br)o1,IC50,Leucine aminopeptidase,65 µM (active)
Cc1cccc(NC(=O)C(NS(=O)(=O)c2ccc3c(c2)CCC(=O)N3)c2ccccc2)n1 (configuration not stated),IC50,[1],> 66 µM (inactive)
same,IC50,[2],> 66 µM (inactive)
N#CCCn1c(SCC(=O)c2c[nH]c3ccccc23)nc2ccccc21,IC50,H9c2,> 79 µM (inactive)
O=C(COC(=O)CCC(=O)c1ccc(F)cc1)Nc1cccc(S(=O)(=O)N2CCCC2)c1,EC50,[3],> 112 µM (not active)
same,EC50,[4],15.5 µM (active)
COc1cc(/C=C2/C(=N)N3C=CSC3=NC2=O)ccc1OCCCOc1ccccc1C,EC50,H4,70.8 µM (active)
same,EC50,[5],58.3 µM (active)
same,IC50,Estrogen receptor,> 50 µM (not active)
same,EC50,[6],5.59 µM (active)
Cc1cc(C(=O)NC(=S)Nc2cccc(NC(=O)C(C)C)c2)ccc1[N+](=O)[O-],IC50,[1],> 66 µM (inactive)
same,IC50,[2],> 66 µM (inactive)
Cc1nn(-c2ccccc2)c2sc(C(=O)OCN3C(=O)c4ccccc4C3=O)cc12,IC50,Estrogen receptor,9.75 µM (active)
CC1CCCN(C(=O)COC(=O)c2n[nH]c3ccccc23)C1 (configuration not stated),IC50,Estrogen receptor,> 50 µM (not active)
CCc1nnc(NC(=O)C(C)Sc2ccccc2)s1 (configuration not stated),IC50,Leucine aminopeptidase,3.57 µM (active)
Cc1sc(NC(=O)c2ccco2)c(C(c2cccnc2)N2CCCC2)c1C (configuration not stated),AC50,Cytochrome P450 2D6,10 µM (inconclusive)
same,IC50,Protein skinhead-1,> 100 µM (inactive)
Cc1cc(C)nc(NN=CC2=C(N3CCOCC3)/C(=C/c3ccc(Cl)cc3)CC2)n1,CC50,Vero,> 25 µM (active)
CN(C)C(=O)CN1C(=O)NC2(CCc3ccccc32)C1=O (configuration not stated),IC50,Protein skinhead-1,> 100 µM (inactive)
CCOc1ccc(N(CC(=O)N/N=C/c2ccccn2)S(=O)(=O)c2ccc(Cl)cc2)cc1,IC50,Fatty acid synthase [7],5.79 µM (active)
same,IC50,Fatty acid synthase [8],10.6 µM (active)
same,IC50,H9c2,> 79 µM (inactive)
COc1ccc(NC(=S)N/N=C/c2ccc(F)cc2)cc1OC,IC50,[1],> 66 µM (inactive)
same,IC50,[2],> 66 µM (inactive)
COc1ccc(NC(=O)Nc2ccc3c(c2)CC(=O)N([C@H](C)CO)C[C@@H](C)[C@@H](CN(C)Cc2ccc(C(F)(F)F)cc2)O3)cc1,AC50,[9],3.52 µM (active)
C[C@@H]1CCCCO[C@H](CN(C)C(=O)Nc2ccc(C(F)(F)F)cc2)[C@@H](C)CN([C@H](C)CO)C(=O)c2cc(NC(=O)Cc3ccccc3)ccc2O1,AC50,[9],1.78 µM (active)
C[C@H]1CN([C@@H](C)CO)C(=O)Cc2cc(NC(=O)Nc3ccc(C(F)(F)F)cc3)ccc2O[C@H]1CN(C)CC1CCCCC1,AC50,[9],3.6 µM (active)
C[C@@H]1CN([C@H](C)CO)C(=O)Cc2cc(NS(=O)(=O)c3ccccc3)ccc2O[C@@H]1CN(C)S(=O)(=O)c1ccc(Cl)cc1,AC50,Paired box protein Pax-8,35.5 µM (active)
same,AC50,[9],2.08 µM (active)
C[C@@H]1CN([C@@H](C)CO)C(=O)Cc2cc(NC(=O)Nc3ccc4c(c3)OCO4)ccc2O[C@@H]1CN(C)Cc1ccc(C(=O)Nc2ccccc2N)cc1,AC50,[9],2.38 µM (active)
O=C(Nc1cccc(F)c1)N[C@@H]1CC[C@@H](CCNS(=O)(=O)c2cccc(Cl)c2)O[C@@H]1CO,AC50,Paired box protein Pax-8,42.7 µM (active)
same,AC50,[10],18.6 µM (active)
CCOc1cc(/C=N/NC(=O)c2ccccn2)ccc1OC(=O)c1cccs1,IC50,cells,26.5 µM (active)
COc1ccc2c3c([nH]c2c1)[C@H](CO)N(Cc1cc(F)ccc1F)CC31CCN(C(=O)C2CCC2)CC1,AC50,[10],3.36 µM (active)
C[C@H](CO)N1C[C@H](C)[C@@H](CN(C)C(=O)Nc2ccc(F)cc2)Oc2ccc(NC(=O)Nc3ccc(C(F)(F)F)cc3)cc2CC1=O,AC50,[10],3.77 µM (active)
CC(=O)N1CC2(C1)[C@@H](c1ccc(-c3cccc(F)c3)cc1)[C@@H](CO)N2CC1CCCC1,AC50,[10],6.15 µM (active)
N#Cc1c(-c2ccccc2)cc(-c2ccco2)c(C#N)c1N,IC50,Estrogen receptor,33.5 µM (not active)
